Where two headings read alike, the source gives them in different places.
Experiments:
Assay type in all cases: cell-based
[1] = test system: chondrosarcoma cells (SW1353); assay: Alamar blue staining of chondrosarcoma; conditions: Homo sapiens
Method: (§1) The hyaluronan synthase activity (Prehm, P. and Schumacher, U., Biochem. Pharmacol. 2004, 68, 1401-1410), the cytotoxicity of the drugs (O'Brien, J. et al., Eur. J. Biochem. 2000, 267, 5421-5426), proteoglycan synthesis rate, hyaluronan (Prehm, P. J. Rheumatol., 2005, 32, 690-696) and proteoglycan (Bjornsson, S. Anal. Biochem. 1993, 210, 282-291) were determined as described. The effect of the prenylflavonoids on the MRP5 export rate was measured with fluorescein diacetate as described (Schulz, T., Schumacher, U., and Prehm, P., J Biol. Chem., 2007, 282, 20999-21004). The determination of the IC50 values on the phosphodiesterase 5 was performed according to the instructions of BPS Bioscience. The culture of bovine chondrocytes in alginate beads and of explants of bovine cartilage was described previously (Deiters, B. and Prehm, P. Arthritis Res. Ther., 2008, 10, R8; Prehm, P. J. Rheumatol. 2005, 32, 690-696). Osteoarthritic reactions were induced in chondrocytes growing in alginate beads by incubation with medium containing 10 ng/ml of II-17 for 6 days, and in cartilage explants with 10 ng/ml of II-17 and 5 ng/ml of II-1α. The supernatants were withdrawn and stored at −20° C. for later analysis. The explants were weighed and extracted with 1 ml of 4 M guanidinium-HCl for 72 hours at 4° C. The proteoglycan concentrations were determined in the extracts.
Chondrosarcoma cells (SW1353 from the American Type Culture Collection) were grown in Dulbecco's medium supplemented with streptomycin/penicillin (100 units of each/ml), 10% foetal calf serum or in serum free Quantum medium supplemented with streptomycin/penicillin (100 units of each/ml), kanamycin (100 units/ml).

[2] = Alamar blue toxicity assay (FIG. 1); conditions: below concentrations of 100 μM
Method: as §1
The toxicity was determined by the Alamar blue assay.

[3] = test system: chondrosarcoma cells; assay: Uptake of flavonoids into chondrosarcoma cells by intracellular fluorescence
Method: Confluent monolayers of chondrosarcoma cells on 96 well microtiter plates were incubated with 100 μM solutions of flavonoids in serum-free Quantum medium. Changes in fluorescence were monitored from the bottom of the wells at excitation and emission wavelengths of 340 nm and 450 nm for xanthohumol and at 440 nm and 530 nm for quercetin, respectively.
Flavonoids are weakly fluorescent in aqueous buffer, but greatly enhance the fluorescence in the presence of proteins (Sengupta, B. and Sengupta, P. K., Biochem. Biophys. Res. Commun., 2002, 299, 400-403). This property was used to follow the uptake of quercetin and xanthohumol into chondrosarcoma cells.

[4] = test system: hyaluronan export from chondrosarcoma cells; assay: Inhibition of hyaluronan export / production in chondrosarcoma cells; conditions: for inhibition of hyaluronan export: culture supernatant after 2 days, comparison with parent compound, particularly below 3 μM
Method: as §1
Chondrosarcoma cells were plated on a 96 well microtiter plate and in the presence of increasing flavonoid concentrations. After 2 days the concentration of hyaluronan was determined in the culture supernatant.

[5] = test system: fibroblasts; assay: Alamar blue staining of fibroblasts; conditions: Fibroblast
Method: as §1

[6] = test system: chondrosarcoma cells; assay: Inhibition of chondrosarcoma cell growth (Coulter counter); conditions: cell numbers after 2 days
Method: Chondrosarcoma cells were plated on a 24 well microtiter plate and in the presence of increasing flavonoid concentrations. After 2 days the cells were trypsinized and the cell numbers were determined in a Coulter counter.

[7] = test system: bovine cartilage explants; assay: Proteoglycan loss from interleukin activated bovine cartilage explants; conditions: interleukin stimulated, 5 days
Method: Cartilage explants were weighed (average wet weight: 20 mg) incubated in the absence and presence of IL-1 (2 ng/ml) and the inhibitors at various concentrations for 5 days. The tissues were extracted with 1.5 ml of a solution of 4 M guanidinium hydrochloride, 0.1 M ε-aminohexanoid acid, 5 mM benzamidine, 10 mM N-ethylmaleinimide, 0.5 mM phenylmethylsulfonyl fluoride for 3 days at 4° C. The solution was centrifuged for 5 min at 10.000 g and the proteoglycans were determined in the supernatant by the alcian blue method as described (Bjornsson, S., Anal. Biochem., 1993, 210, 282-291).
Bovine cartilage explants were incubated in the absence and presence of interleukin for stimulation of osteoarthritic reactions and the indicated concentrations of the xanthohumol-betaine (FIG. 6A), xanthohumol-prothiazole (FIG. 6B), quercetin-prothiazole (FIG. 6C), quercetin (FIG. 6D) and xanthohumol (FIG. 6E) for 5 days. The cartilage explants were weighed and the proteoglycan concentrations were determined in the cartilage explants (solid bars) and culture supernatants (open bars).

## O=c1c(O)c(-c2ccc(O)c(O)c2)oc2cc(O)cc(O)c12 [Quercetin, reference compound]
[1]
  IC50: 70 µM
[2]
  toxicity in Alamar blue assay: not toxic
[3]; concentration dependence, FIG. 2A
  uptake into chondrosarcoma cells (intracellular fluorescence): did not accumulate inside the cells
[4]
  IC50: 16 µM

## CC(=O)S/C=C\N(C=O)CC(=O)Oc1ccc(-c2oc3cc(O)cc(O)c3c(=O)c2O)cc1O [Quercetin-prothiazole, (Z)-2-hydroxy-4-(3,5,7-trihydroxy-4-oxo-4H-chromen-2-yl)phenyl 2-(N-(2-(acetylthio)vinyl)formamido)acetate]
[5]
  IC50: 66 µM
[1]
  IC50: 61 µM
[2]
  toxicity in Alamar blue assay: not toxic
[3]
  uptake into chondrosarcoma cells (intracellular fluorescence): taken up in a concentration dependent manner
[6]
  inhibition of chondrosarcoma cell growth: more effective at submicromolar concentrations
[4]
  IC50: 8 µM
  inhibition of hyaluronan export: more effective than their parent compound
[7]
  inhibition of proteoglycan loss (protective effect): similarly effective

## COc1cc(O)c(CC=C(C)C)c(O)c1C(=O)/C=C/c1ccc(OC(=O)CN(C=O)/C=C\SC(C)=O)cc1 [Xanthohumol-prothiazole, 4-((E)-3-(2,4-dihydroxy-6-methoxy-3-(3-methylbut-2-en-1-yl)phenyl)-3-oxoprop-1-en-1-yl)phenyl 2-(N-((Z)-2-(acetylthio)vinyl)formamido)acetate]
[5]
  IC50: 74 µM
[1]
  IC50: 69 µM
[2]
  toxicity in Alamar blue assay: not toxic
[3]
  uptake into chondrosarcoma cells (intracellular fluorescence): taken up in a concentration dependent manner
[6]
  inhibition of chondrosarcoma cell growth: more effective at submicromolar concentrations
[4]
  IC50: 20 µM
  inhibition of hyaluronan export: more effective than their parent compound
[7]
  inhibition of proteoglycan loss (protective effect): similarly effective
